Reference: patent US9328112B2, “Tetracyclic CDK9 kinase inhibitors” (AbbVie Inc., priority 2014, dated 2016)

Key:
[1] = molecular target: CDK9/Cyclin T1 (Homo sapiens (Human), UniProt P50750); test: CDK9 enzyme assay (LANCE ULight TR-FRET kinase assay); type: biochemical; settings: 1000 μM ATP, 100 nM ULight MBP, kinase reaction 1 hour
Method in brief: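 TR-FRET readout (ex 320 nm; em 615/665 nm) after 1 h detection with 0.5 nM europium anti-phospho-MBP antibody in 20 mM EDTA stop buffer. Preceding 1 h kinase step: CDK9/Cyclin T1, ULight-MBP substrate at 100 nM, ATP at 1000 μM, compound pre-diluted in DMSO then buffer.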

[2] = tested on: H929 cells; test: Cell viability assay (Cell TiterGlo); type: cell-based; settings: Homo sapiens, NCI-H929, 24 hours at 37° C., Cell TiterGlo luminescence
Protocol: The cell viability assay was performed using H929 cells. Cells were seeded in 96-well plates at 10,000 cells/well and, after overnight incubation, treated with compounds in a dose response of 3-fold dilutions from 10 μM to 0.005 μM ([…], 0.1% final DMSO concentration). After 24 hours at 37° C., cell viability was measured using Cell TiterGlo reagent (Promega) with a luminescence reader.

Sequence of CDK9/Cyclin T1 (P50750 whole entry): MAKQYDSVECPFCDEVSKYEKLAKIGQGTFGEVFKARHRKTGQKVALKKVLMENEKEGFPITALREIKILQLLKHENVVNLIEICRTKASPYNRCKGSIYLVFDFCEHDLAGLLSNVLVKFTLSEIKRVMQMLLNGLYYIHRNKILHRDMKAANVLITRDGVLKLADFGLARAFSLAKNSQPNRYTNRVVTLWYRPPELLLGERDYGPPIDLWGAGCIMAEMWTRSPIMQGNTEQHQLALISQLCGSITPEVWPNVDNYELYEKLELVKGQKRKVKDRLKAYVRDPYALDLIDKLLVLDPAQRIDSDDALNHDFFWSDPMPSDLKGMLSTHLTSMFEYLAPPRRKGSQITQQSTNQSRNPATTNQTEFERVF
Sequence of CDK9/Cyclin T1 (O60563 whole entry partner): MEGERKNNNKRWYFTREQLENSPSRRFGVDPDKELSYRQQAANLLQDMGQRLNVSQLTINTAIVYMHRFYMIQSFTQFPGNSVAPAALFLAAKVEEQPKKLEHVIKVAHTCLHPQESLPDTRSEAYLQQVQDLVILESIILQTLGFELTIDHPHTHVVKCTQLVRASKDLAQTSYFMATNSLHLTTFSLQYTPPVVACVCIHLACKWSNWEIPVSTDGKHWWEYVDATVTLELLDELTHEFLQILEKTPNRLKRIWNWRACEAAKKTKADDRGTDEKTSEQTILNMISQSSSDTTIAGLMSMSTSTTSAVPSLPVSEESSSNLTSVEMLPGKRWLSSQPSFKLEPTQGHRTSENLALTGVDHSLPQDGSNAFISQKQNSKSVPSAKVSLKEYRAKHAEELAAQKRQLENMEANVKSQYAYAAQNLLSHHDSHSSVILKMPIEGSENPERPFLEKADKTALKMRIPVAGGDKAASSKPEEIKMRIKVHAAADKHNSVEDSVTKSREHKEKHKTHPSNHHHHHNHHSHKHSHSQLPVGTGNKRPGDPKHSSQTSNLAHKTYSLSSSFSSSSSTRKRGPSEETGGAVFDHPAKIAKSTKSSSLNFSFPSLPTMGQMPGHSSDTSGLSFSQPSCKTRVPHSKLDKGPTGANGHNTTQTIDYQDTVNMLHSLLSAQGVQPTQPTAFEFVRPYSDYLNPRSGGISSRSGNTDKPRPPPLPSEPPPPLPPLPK

IC50 [1]	IC50 [2]	Compound
0.12 µM	0.092 µM	CC(C)[C@H](NC1CC=C(c2[nH]c3nccc4c3c2CN(C)c2ccc(F)cc2-4)CC1)C(=O)O (stereo partly drawn) [Example 34, N-[4-(10-fluoro-7-methyl-6,7-dihydro-4H-3,4,7-triazadibenzo[cd,f]azulen-5-yl)cyclohex-3-en-1-yl]-L-valine]
0.13 µM	1.2 µM	CN1Cc2c(C3=CCCN(S(C)(=O)=O)C3)[nH]c3nccc(c23)-c2cc(F)ccc21 [Example 95, 10-fluoro-7-methyl-5-[1-(methylsulfonyl)-1,2,5,6-tetrahydropyridin-3-yl]-6,7-dihydro-4H-3,4,7-triazadibenzo[cd,f]azulene]
0.42 µM	1.4 µM	CN1Cc2c(C3=CCCN(CC(=O)N(C)C4CC(O)C4)C3)[nH]c3nccc(c23)-c2cc(F)ccc21 (stereo not drawn) [Example 122, 2-[5-(10-fluoro-7-methyl-6,7-dihydro-4H-3,4,7-triazadibenzo[cd,f]azulen-5-yl)-3,6-dihydropyridin-1(2H)-yl]-N-(3-hydroxycyclobutyl)-N-methylacetamide]
0.075 µM	0.32 µM	CN1Cc2c(-c3cccnc3)[nH]c3nccc(c23)-c2cc(F)ccc21 [Example 60, 10-fluoro-7-methyl-5-(pyridin-3-yl)-6,7-dihydro-4H-3,4,7-triazadibenzo[cd,f]azulene]
0.086 µM	0.07 µM	CN1Cc2c(C3=CCC(NCC(=O)O)CC3)[nH]c3nccc(c23)-c2cc(F)ccc21 (stereo not drawn) [Example 31, N-[4-(10-fluoro-7-methyl-6,7-dihydro-4H-3,4,7-triazadibenzo[cd,f]azulen-5-yl)cyclohex-3-en-1-yl]glycine]

Continued, molecule first:

Compound	IC50 [1]	IC50 [2]
CN1Cc2c(C3=CCN(CCS(N)(=O)=O)CC3)[nH]c3nccc(c23)-c2cc(F)ccc21 [Example 179, 2-[4-(10-fluoro-7-methyl-6,7-dihydro-4H-3,4,7-triazadibenzo[cd,f]azulen-5-yl)-3,6-dihydropyridin-1(2H)-yl]ethanesulfonamide]	0.024 µM	0.064 µM
CNC(=O)N1[C@H]2CC[C@@H]1C=C(c1[nH]c3nccc4c3c1CN(C)c1ccc(F)cc1-4)C2 [Example 57, (1R,5S)-3-(10-fluoro-7-methyl-6,7-dihydro-4H-3,4,7-triazadibenzo[cd,f]azulen-5-yl)-N-methyl-8-azabicyclo[3.2.1]oct-2-ene-8-carboxamide]	0.2 µM	2.2 µM
C[C@H](NC1CC=C(c2[nH]c3nccc4c3c2CN(C)c2ccc(F)cc2-4)CC1)C(=O)O (stereo partly drawn) [Example 30, N-[4-(10-fluoro-7-methyl-6,7-dihydro-4H-3,4,7-triazadibenzo[cd,f]azulen-5-yl)cyclohex-3-en-1-yl]-L-alanine]	0.1 µM	0.1 µM
CN(CC(O)CO)C(=O)CN1[C@H]2CC[C@@H]1C=C(c1[nH]c3nccc4c3c1CN(C)c1ccc(F)cc1-4)C2 (stereo partly drawn) [Example 83, N-(2,3-dihydroxypropyl)-2-[(1R,5S)-3-(10-fluoro-7-methyl-6,7-dihydro-4H-3,4,7-triazadibenzo[cd,f]azulen-5-yl)-8-azabicyclo[3.2.1]oct-2-en-8-yl]-N-methylacetamide]	0.14 µM	0.14 µM
CN1Cc2c(C3=CCN(CC(=O)O)CC3)[nH]c3nccc(c23)-c2cc(F)c(F)cc21 [Example 145, [4-(9,10-difluoro-7-methyl-6,7-dihydro-4H-3,4,7-triazadibenzo[cd,f]azulen-5-yl)-3,6-dihydropyridin-1(2H)-yl]acetic acid]	0.042 µM	0.18 µM
CS(=O)(=O)N1CC=C(c2[nH]c3nccc4c3c2COc2ccc(F)cc2-4)CC1 [Example 15, 10-fluoro-5-[1-(methylsulfonyl)-1,2,3,6-tetrahydropyridin-4-yl]-4,6-dihydro-7-oxa-3,4-diazadibenzo[cd,f]azulene]	0.094 µM	0.59 µM
CC[C@@H]1c2c(C3=CCNCC3)[nH]c3nccc(c23)-c2cc(F)ccc2N1C [Example 143, (6R)-6-ethyl-10-fluoro-7-methyl-5-(1,2,3,6-tetrahydropyridin-4-yl)-6,7-dihydro-4H-3,4,7-triazadibenzo[cd,f]azulene]	0.417 µM	0.582 µM
